Reference: patent US20140005070A1, “MARKERS ASSOCIATED WITH CYCLIN-DEPENDENT KINASE INHIBITORS” (Novartis AG, priority 2011, published 2014)
Entries after “also recorded” stand apart in the source; their conditions may differ. Starred links: 1 amine or outer side, 2 acyl side, 3 side chain; linkers in the order of their positions; H or OH if unused. Positions of bridges follow the written chain, without caps; N, C: chain ends. Non-standard residues stand in square brackets, D forms with d. Residues, ends and D or L forms follow the SMILES beside them. Chains are numbered I, II in the order given. Actinocin(9to1) = Cc1c2oc3c(C)ccc(C(=O)[*:1])c3nc-2c(C(=O)[*:2])c(N)c1=O; NMeV = CN[C@H](C(=O)O)C(C)C; Sar = CNCC(=O)O

What was measured:
MEPCE [1] = test: MEPCE expression after treatment with CDK9 / transcription elongation inhibitors (FIG. 3); assay type: cell-based
MCL1 protein = test: Western blot of anti-apoptotic and pro-apoptotic family members (FIG. 5); assay type: cell-based; conditions: lung cancer cell line
Procedure: After treatment with a CDKI, cells were lysed in modified RIPA buffer containing 50 mM TRIS pH 7.4, 150 mM NaCl, 1 mM EDTA, 1% Brij-35, 0.1% deoxycholate, protease inhibitors (Roche Molecular Biochemicals, Mannheim, Germany). SDS-PAGE (4-12% gel) was used to resolve the proteins in the lysate. After electrophoresis, the proteins were electrotransferred onto a polyvinylidene fluoride microporous membrane and immunodetected using standard procedures. FIG. 4 is a Western blot of the multiple myeloma line NCI-H929, treated with CDKI(7) or DMSO and gene expression analyzed at certain time points during the treatment. […] Thus, the reduction in expression of genes in response to CDKI seen at the mRNA level by microarray is confirmed at the protein level by Western blotting.
FIG. 5 is a Western blot comparing the reduction of expression of anti-apoptotic and pro-apoptotic family members after treatment with CDKI(8).

MEPCE [2] = test: Dog toxicology study, TaqMan mRNA in white blood cells after CDKI(12): MEPCE; assay type: in vivo
Procedure: (§1) As part of a dog toxicology study, the pharmacodynamic markers MEPCE, MYC and MCL1 were measured by TaqMan® in white blood cells at various time points after CDKI(12) treatment.
The study had three groups of three dogs each. Dogs in Group 1 (#1001, #1002, and #1003) were treated with vehicle, dogs in Group 3 (#3001, #3002, and #3003) were treated with CDKI(12) at 0.1 mg/kg and dogs in Group 5 (#5001, #5002, and #5003) were treated with CDKI(12) at 0.15 mg/kg. Samples were collected before treatment 0 hour timepoint; 4 hours, 8 hours and 24 hours after treatment, for a total of 12 samples per group. Blood samples were received frozen in QIAGEN RNAprotect® Animal Blood tubes (Cat. #76554). RNA samples were extracted using the QIAGEN RNeasy® Protect Animal Blood kit (Cat. #73224). RNA samples were quantified using the RNA Quant-iT RNA assay® from Invitrogen (Cat. #Q32852) and read on an Invitrogen Qubit fluorometer (Cat. #Q32857). First strand cDNA synthesis was performed on 500 ng of RNA in a reaction volume of 20 μl using a High Capacity cDNA Reverse Transcription Kit from Applied Biosystems (Cat. #4368814). The cDNA samples were then diluted to 2 ng/μl (10 ng in 5 μl in each reaction). Each TaqMan® reaction contained: 5 μl of cDNA, 1.25 μl of each probe (18S rRNA and gene of interest), 5 μl of water and 12.5 μl of TaqMan® Gene Expression Master Mix from Applied Biosystems (Cat. #4369016) for a total volume of 25 μl. TaqMan® reactions were run in triplicates on an ABI 7500® machine. The 18S rRNA level was used as an endogenous control to correct for variations in cDNA input. The relative quantification method was used to analyze the data; this method uses one sample as a calibrator sample and express mRNA levels relative to that sample. The results are expressed as RQ values (Relative Quantification) with RQ Min and RQ Max values determining a 95% confidence interval for the RQ value. The samples were grouped according to treatment and time point and data from three dogs, each measured in triplicate, were averaged. The vehicle group at 0 hour timepoint was used as the calibrator sample thus allowing us to measure changes in mRNA levels in response to the test article at various time points. The logarithm of the RQ values are plotted so that increases or decreases from the initial value can be more easily represented; on a logarithmic scale a 10-fold increase or 10-fold decrease in RQ value are represented as +1 and −1 respectively.
We have previously shown that the MEPCE mRNA is particularly sensitive to CDK9 inhibition and any CDKI (see Examples above). […] The mRNA levels were determined by TaqMan® using the relative quantification method. The calibrator sample is vehicle at 0 hour timepoint. […]

MYC = test: Dog toxicology study, TaqMan mRNA in white blood cells after CDKI(12): MYC; assay type: in vivo; conditions: any of the tested doses (0.1, 0.15 mg/kg), FIG. 10
Procedure: as §1
(§2) The study had three groups of three dogs each. Dogs in Group 1 (#1001, #1002, and #1003) were treated with vehicle, dogs in Group 3 (#3001, #3002, and #3003) were treated with CDKI(12) at 0.1 mg/kg and dogs in Group 5 (#5001, #5002, and #5003) were treated with CDKI(12) at 0.15 mg/kg. Samples were collected before treatment 0 hour timepoint; 4 hours, 8 hours and 24 hours after treatment, for a total of 12 samples per group. Blood samples were received frozen in QIAGEN RNAprotect® Animal Blood tubes (Cat. #76554). RNA samples were extracted using the QIAGEN RNeasy® Protect Animal Blood kit (Cat. #73224). RNA samples were quantified using the RNA Quant-iT RNA assay® from Invitrogen (Cat. #Q32852) and read on an Invitrogen Qubit fluorometer (Cat. #Q32857). […] The relative quantification method was used to analyze the data; this method uses one sample as a calibrator sample and express mRNA levels relative to that sample. The results are expressed as RQ values (Relative Quantification) with RQ Min and RQ Max values determining a 95% confidence interval for the RQ value. The samples were grouped according to treatment and time point and data from three dogs, each measured in triplicate, were averaged. […]

MCL1 = test: Dog toxicology study, TaqMan mRNA in white blood cells after CDKI(12): MCL1; assay type: in vivo; conditions: any of the tested doses (0.1, 0.15 mg/kg), two probes, FIG. 11
Procedure: as §1, §2

Row | SMILES | MEPCE expression (MEPCE [1]) | expression of MCL1 protein (MCL1 protein; 2 hours after treatment) | expression of MCL1 protein (MCL1 protein; after 16 hour exposure) | MEPCE mRNA regulation (MEPCE [2]; 0.1 mg/kg, FIG. 9, 0.1 mg/kg) | MEPCE mRNA level at 4 and 8 hours (MEPCE [2]; 0.15 mg/kg, 4 and 8 hours) | MEPCE mRNA level by 24 hours (MEPCE [2]; 0.15 mg/kg, 24 hours) | MEPCE mRNA regulation (MEPCE [2]; 0.15 mg/kg, FIG. 9) | MYC mRNA regulation (MYC) | MCL1 mRNA regulation (MCL1)
1 | Cc1c2oc3c(C)ccc(C(=O)N[C@@H]4C(=O)N[C@H](C(C)C)C(=O)N5CCC[C@H]5C(=O)N(C)CC(=O)N(C)[C@@H](C(C)C)C(=O)O[C@@H]4C)c3nc-2c(C(=O)N[C@@H]2C(=O)N[C@H](C(C)C)C(=O)N3CCC[C@H]3C(=O)N(C)CC(=O)N(C)[C@@H](C(C)C)C(=O)O[C@@H]2C)c(N)c1=O [Actinomycin D, reference compound] (I: T[dV]P[Sar][NMeV] / II: T[dV]P[Sar][NMeV]; ester I:1-I:C, II:1-II:C; linker I:N-II:N via Actinocin(9to1)) | reduces the expression of MEPCE |  |  |  |  |  |  |  | 
2 | N[C@H]1CC[C@H](Nc2cc(-c3cccc(NCc4cccc(F)c4)n3)c(Cl)cn2)CC1 [CDKI(8)] | reduced | reduced | further reduced |  |  |  |  |  | 
3 | COC[C@@H](C)N[C@H]1CC[C@H](Nc2cc(-c3cccc(NCC4(C#N)CCOCC4)n3)c(Cl)cn2)CC1 [CDKI(12)] |  |  |  | less down regulation; also recorded: clear down regulation | reduced | returns to pretreatment levels | clear down regulation | does not show any significant down regulation; also recorded: not significantly down regulated | does not show any significant down regulation; also recorded: not significantly down regulated
